Target: T1, CCR1 (Homo sapiens, UniProt P32246)
T1 construct: host or cells: THP-1 cells or monocytes isolated from human buffy coats
T1 sequence (P32246 1-355): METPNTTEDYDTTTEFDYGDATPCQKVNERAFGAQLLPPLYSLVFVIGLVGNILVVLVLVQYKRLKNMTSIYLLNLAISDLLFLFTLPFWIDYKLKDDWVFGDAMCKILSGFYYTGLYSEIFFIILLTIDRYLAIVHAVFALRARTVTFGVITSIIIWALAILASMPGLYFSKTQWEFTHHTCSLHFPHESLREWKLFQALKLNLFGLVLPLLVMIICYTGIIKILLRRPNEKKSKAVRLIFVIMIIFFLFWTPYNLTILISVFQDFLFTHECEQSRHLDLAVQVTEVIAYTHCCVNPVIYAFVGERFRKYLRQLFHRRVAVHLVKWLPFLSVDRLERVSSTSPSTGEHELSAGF
Experiment: CCR1 chemotaxis assay or binding assay (activity given for either)
Conditions: either the chemotaxis assay or binding assay; CCR1 expressing cells (THP-1 or human monocytes); read-out: Activity (IC50 class)
Method: Cells were grown under 5% CO2/95% air, 100% humidity at 37° C. and subcultured twice weekly at 1:5 (cells were cultured at a density range of 2×10^5 to 2×10^6 cells/mL) and harvested at 1×10^6 cells/mL. THP-1 cells express CCR1 and can be used in CCR1 binding and functional assays.
Monocytes were isolated from human buffy coats using the Miltenyi bead isolation system (Miltenyi, Auburn, Calif.). Briefly, following a Ficoll gradient separation to isolate peripheral blood mononuclear cells, cells were washed with PBS and the red blood cells lysed using standard procedures. Remaining cells were labeled with anti-CD14 antibodies coupled to magnetic beads (Miltenyi Biotech, Auburn, Calif.). Labeled cells were passed through AutoMACS (Miltenyi, Auburn, Calif.) and positive fraction collected. Monocytes express CCR1 and can be used in CCR1 binding and functional assays.
CCR1 expressing cells were centrifuged and resuspended in assay buffer (20 Mm HEPES pH 7.1, 140 Mm NaCl, 1 Mm CaCl2, 5 Mm MgCl2, and with 0.2% bovine serum albumin) to a concentration of 5×10^6 cells/mL for THP-1 cells and 5×10^5 for monocytes. Binding assays were set up as follows. […] Reactions were aspirated onto GF/B glass filters pre-soaked in 0.3% polyethyleneimine (PEI) solution, on a vacuum cell harvester (Packard Instruments; Meriden, Conn.). Scintillation fluid (40 μl; Microscint 20, Packard Instruments) was added to each well, the plates were sealed and radioactivity measured in a Topcount scintillation counter (Packard Instruments). Control wells containing either diluent only (for total counts) or excess MIP-1α or MIP-1β (1 μg/mL, for non-specific binding) were used to calculate the percent of total inhibition for compound. The computer program Prism from GraphPad, Inc. (San Diego, Calif.) was used to calculate IC50 values.
Chemotaxis assays were performed using 5 ┌ m pore polycarbonate, polyvinylpyrrolidone-coated filters in 96-well chemotaxis chambers (Neuroprobe; Gaithersburg, Md.) using chemotaxis buffer (Hank's balanced salt solution (HBSS) and 1% FBS). CCR1 chemokine ligands (i.e., MIP-1α, CCL15/Leukotactin; R&D Systems; Minneapolis, Minn.) are use to evaluate compound mediated inhibition of CCR1 Mediated migration. Other chemokines (i.e., SDF-1α; R&D Systems; Minneapolis, Minn.) are used as specificity controls. […] The chambers were incubated 1-2 hours at 37° C., and the number of cells in the lower chamber quantified either by direct cell counts in five high powered fields per well or by the CyQuant assay (Molecular Probes), a fluorescent dye method that measures nucleic acid content and microscopic observation.
THP-1 cells and monocytes lack other chemokine receptors that bind the same set of chemokine ligands as CCR1 (i.e., MIP-1α, MPIF-1, Leukotactin, etc.). Equal numbers of cells were added to each well in the plate. The cells were then incubated with radiolabeled MIP-1α. Unbound ligand was removed by washing the cells, and bound ligand was determined by quantifying radioactive counts. […] Percent inhibition was determined by the equation: […]
In the assay, the amount of compound was varied; while cell number and ligand concentration were held constant.
One of the primary functions of chemokines is their ability to mediate the migration of chemokine receptor-expressing cells, such as white blood cells. […] THP-1 Myelomonocytic leukemia cells, which resemble monocytes, as wells as freshly isolated monocytes, were used as targets for chemoattraction by CCR1 chemokine ligands (i.e., MIP-1α, CCL15/leukotactin). […] In this assay, the amount of compound was varied; while cell number and chemokine agonist concentrations were held constant. After the chemotaxis chambers were incubated 1-2 hours at 37° C., the responding cells in the lower chamber were quantified by labeling with the CyQuant assay (Molecular Probes), a fluorescent dye method that measures nucleic acid content, and by measuring with a Spectrafluor Plus (Tecan).

COc1cc(N2CCN(C(=O)Cn3cc4ccncc4n3)CC2)ccc1Cl [Compound 1.018]
IC50: < 1000 nM

COc1cc(N2CCN(C(=O)Cn3ncc4ccc(Cl)nc43)CC2)ccc1Cl [Compound 1.047]
IC50: < 1000 nM

COc1cc(N2CCN(C(=O)Cn3nc(CS(=O)(=O)O)c4cccnc43)CC2)ccc1Cl [Compound 1.041]
IC50: 1000 to 2500 nM

COc1cc(N2CCN(C(=O)Cn3nc(-c4nccs4)c4cccnc43)[C@@H](C)C2)c(F)cc1Cl [Compound 1.021]
IC50: < 1000 nM

COc1cc(N2CCN(C(=O)Cn3cc4cccnc4n3)CC2)c(F)cc1Cl [Compound 1.013]
IC50: < 1000 nM

COc1cc(N2CCN(C(=O)Cn3nc(-c4ncc[nH]4)c4cccnc43)CC2)ccc1Cl [Compound 1.080]
IC50: < 1000 nM

O=C(Cn1nc(-c2ncc[nH]2)c2cccnc21)N1CCN(c2ccc(Cl)c(OC(F)(F)F)c2)CC1 [Compound 1.079]
IC50: < 1000 nM

COc1cc(N2CCN(C(=O)Cn3ncc4ccnc(N=[N+]=[N-])c43)CC2)ccc1Cl [Compound 1.050]
IC50: < 1000 nM

COc1cc(N2CCN(C(=O)Cn3nc(C)c4cc([N+](=O)[O-])cnc43)CC2)ccc1Cl [Compound 1.054]
IC50: < 1000 nM

O=C(Cn1nc(-c2ncc[nH]2)c2cccnc21)N1CCN(c2ccc(Cl)c(OCCF)c2)CC1 [Compound 1.075]
IC50: < 1000 nM

COc1cc(N2CCN(C(=O)Cn3nc(-c4ncc[nH]4)c4cccnc43)[C@H](C)C2)ccc1Cl [Compound 1.073]
IC50: < 1000 nM

COc1cc(N2CCN(C(=O)Cn3cc4ccc(Cl)nc4n3)CC2)ccc1Cl [Compound 1.046]
IC50: < 1000 nM

COc1cc(N2CCN(C(=O)Cn3ncc4c(I)ccnc43)CC2)ccc1Cl [Compound 1.038]
IC50: < 1000 nM

COc1cc(N2CCN(C(=O)Cn3ncc4cccnc43)[C@@H](C)C2)c(F)cc1Cl [Compound 1.001]
IC50: < 1000 nM

O=C(Cn1nc(-c2ncc[nH]2)c2cccnc21)N1CCN(c2ccc(Cl)c(C(F)(F)F)c2)CC1 [Compound 1.078]
IC50: 2500 to 12500 nM

COc1cc(N2CCN(C(=O)Cn3nc(-c4nccn4C)c4cccnc43)CC2)ccc1Cl [Compound 1.081]
IC50: < 1000 nM

CCOc1cc(N2CCN(C(=O)Cn3nc(-c4ncc[nH]4)c4cccnc43)CC2)ccc1Cl [Compound 1.067]
IC50: < 1000 nM

COc1cc(N2CCN(C(=O)Cn3ncc4ncccc43)CC2)ccc1Cl [Compound 1.028]
IC50: < 1000 nM

COc1cc(N2CCN(C(=O)Cn3nc(C)c4cc(N)cnc43)CC2)ccc1Cl [Compound 1.053]
IC50: < 1000 nM

COc1cc(N2CCN(C(=O)Cn3ncc4ccc(C)nc43)CC2)ccc1Cl [Compound 1.031]
IC50: < 1000 nM

COc1cc(N2CCN(C(=O)Cn3nc(C)c4cccnc43)CC2)ccc1Cl [Compound 1.023]
IC50: < 1000 nM

COc1cc(N2CCN(C(=O)Cn3nc(C(=N)NO)c4cccnc43)CC2)ccc1Cl [Compound 1.057]
IC50: < 1000 nM

COc1cc(N2CCN(C(=O)Cn3ncc4cccnc43)CC2)ccc1Cl [Compound 1.007]
IC50: < 1000 nM

— patent US7777035B2, “Azaindazole compounds and methods of use” (Chemocentryx, Inc., priority 2005, dated 2010)
